test: gradient 5% acetonitrile 3 min, to 50% in 2 min, to 85% in 15 min, held 3 min, 100 µL/min; conditions: column: Zorbax Extend-C18 2.1 x 50 mm; eluents: water / acetonitrile, 0.1% formic acid
In short: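 Pure standards were analyzed in mixtures of ~100 molecules using HPLC coupled to a quadrupole time-of-flight mass spectrometer, in both positive and negative ionization mode. Separation used a Zorbax Extend-C18 column (2.1 × 50 mm, 1.8 μm) at 100 μL/min, with water and acetonitrile each containing 0.1% formic acid. Dead and dwell volumes were 40 μL and 900 μL, and data were collected over 3 months. Retention time was read from computationally picked adduct peaks, each inspected manually.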

Row | RP-LC retention time [s] | Compound
1 | 860 | O=C(C1CCCN(c2ncnc3c2nc2n3CCCCC2)C1)N1CCc2ccccc21 (centres undefined)
2 | 625 | CCOC(=O)CNC(=O)CSc1ccc2nnc(-c3cccc(F)c3)n2n1
3 | 879 | COc1ccc(-c2oc3ccc(OC)cc3c2C(=O)O)cc1
4 | 860 | O=c1c(=O)n(-c2ccc(Cl)cc2)ccn1Cc1nc(-c2ccccc2)no1
5 | 1230 | CC(C)c1ccc(S(=O)(=O)N2CCc3nc(-c4ccccc4)ncc3C2)cc1
6 | 995 | Cc1cc(NC(=O)Cn2nc(N(C)C)c3ccccc3c2=O)ccc1Br
7 | 730 | CCOc1cc(C(=O)N2CCN(c3cc(=O)n(C)c(=O)n3C)CC2)cc(OCC)c1OCC
8 | 1000 | Cc1nn(-c2ccccc2)c(C)c1S(=O)(=O)N1CCC(C(=O)Nc2ccc(F)cc2Cl)CC1
9 | 580 | CNC(=O)c1cc(=O)[nH]c2ccccc12
10 | 830 | CNC(=O)c1cc(COc2ccc(NC(=O)c3ccc(Br)cc3)cc2)on1
11 | 1130 | CCOc1cc(-c2noc(-c3nnn4c3COC(c3ccc(F)cc3)C4)n2)ccc1OC (centres undefined)
12 | 596 | O=C(Cn1c(=O)n(-c2ccccc2)c2ncccc21)N1CCN(c2ccccn2)CC1
13 | 802 | Cc1ccccc1Nc1c(-c2cccc(Cl)c2)nc2cccc(C)n12
14 | 1320 | CCCN(C(=O)CC)c1nc(-c2cccc(Cl)c2)cs1
15 | 1110 | CCCCc1ccc(Nc2nc(C(=O)OCC)nc3ccccc23)cc1
16 | 1230 | Cc1ccc(NC(=O)C2CCCN(c3nc4ccccc4nc3C(F)(F)F)C2)c(C)c1 (centres undefined)
17 | 1030 | Cc1cc(C)c(S(=O)(=O)N(Cc2ccsc2)Cc2ccccn2)c(C)c1
18 | 802 | COc1ccc(S(=O)(=O)N2CCC(c3noc(-c4ccccn4)n3)C2)cc1 (centres undefined)
19 | 944 | CCc1ccc(NC(=O)C2CCN(S(C)(=O)=O)c3cc(Cl)ccc3O2)cc1 (centres undefined)
20 | 757 | CCOc1ccc(C(=O)NCc2c(C)noc2C)cc1OCC
21 | 600 | O=C(Cc1c[nH]c2ccccc12)NC1CCN(c2ccc(=O)[nH]n2)C1 (centres undefined)
22 | 796 | COc1ccccc1OCC(=O)NCCCS(=O)(=O)N1CCN(c2ccccc2)CC1
23 | 784 | Cc1ccc(-c2nnc(-c3cccc(S(=O)(=O)NC(C)C(=O)O)c3)o2)cc1 (centres undefined)
24 | 683 | Cc1cccc(NC(=O)N2CCCC(Cn3c(C4CC4)nc4cccnc43)C2)c1C (centres undefined)

Row | RP-LC retention time [s] | Compound
25 | 688 | Cc1nccn1CCC(C(N)=O)(c1ccccc1)c1ccccc1
26 | 766 | COc1ccc(OC)c(S(=O)(=O)Nc2ccc(Oc3nc4ccccc4n4cnnc34)cc2)c1
27 | 839 | O=S(=O)(Cc1ccccc1F)N1CCC(c2noc(-c3ccncc3)n2)C1 (centres undefined)
28 | 857 | O=C(Nc1nnc(SCc2nnc(-c3ccc4c(c3)OCO4)o2)s1)c1ccccc1
29 | 955 | CC1CCN(c2nc(-c3ccc(Br)cc3)nc3ccccc23)CC1
30 | 736 | CC(C)(Oc1ccc(Cl)cc1)C(=O)NCC1(O)CCc2ccccc21 (centres undefined)
31 | 847 | CCCCS(=O)(=O)c1cc2c(cc1NC(=O)Cc1ccc(F)cc1)n(C)c(=O)n2C
32 | 816 | COc1ccc(-c2nnc(-c3cccc(S(=O)(=O)N(C)C)c3)o2)cc1OC
33 | 734 | CNCCC(Oc1ccccc1OC)c1ccccc1 (centres undefined)
34 | 563 | CCn1c(=O)c(=O)n(CC(=O)N2CCN(c3ccccn3)CC2)c2ccccc21
35 | 1050 | Cc1ccc(-c2noc(-c3ccc(=O)n(CC(=O)OC(C)C)n3)n2)cc1
36 | 640 | CCOc1ccc(S(=O)(=O)[C@H]2CS(=O)(=O)C[C@@H]2N2CCN(c3ccccn3)CC2)cc1
37 | 1000 | CCOc1ccc(OCC)c(N2C=C(C#N)S(=O)(=O)c3ccccc32)c1
38 | 884 | Cc1ccc(NC(=O)Cn2nc(C(=O)N3CCCC3)c3ccccc32)cc1F
39 | 899 | O=C(Cc1ccccc1Cl)NC(c1ccccc1)c1nnc(N2CCCCC2)o1 (centres undefined)
40 | 903 | COc1ccc(S(=O)(=O)N2CCCN(c3ccc(=O)n(-c4ccc(C)c(C)c4)n3)CC2)cc1
41 | 884 | Nc1ccc(N2C(=O)c3ccccc3C2=O)c(Cl)c1
42 | 631 | COc1cc(NC(=O)NCC(c2cccnc2)c2c[nH]c3ccccc23)cc(OC)c1OC (centres undefined)
43 | 1070 | Cc1cc(C)n(-c2ccnc(N(C)Cc3ccccc3)n2)n1
44 | 664 | Cc1ccc2oc(=O)c3cc(C(=O)N4CCN(c5ccccn5)CC4)sc3c2c1
45 | 610 | COc1ccc(OC)c(Nc2c(-c3nc(C)no3)cnc3nc(C)ccc23)c1
46 | 1020 | Cc1nn(-c2ccccc2)c(C)c1CCc1nnc2sc(-c3ccc(N(C)C)cc3)nn12
47 | 1100 | O=C1COc2cc(Cl)ccc2N1Cc1nc(-c2cccc(F)c2)no1

Second part, the compound before the results:

Row | Compound | RP-LC retention time [s]
48 | Cc1ccc(CNC(=O)N2CCC(C(=O)NCc3csc(C)n3)CC2)cc1 | 661
49 | O=C(NCC(c1ccco1)N1CCN(c2ccc(F)cc2)CC1)c1ccsc1 (centres undefined) | 603
50 | CC1(C)COCN1S(=O)(=O)c1ccc(C(=O)Nc2nnc(-c3cccs3)o2)cc1 | 750
51 | Cc1ccc(Cl)cc1N1C(=O)CN(S(C)(=O)=O)CC1(C)C(=O)NC1CCCC1 (centres undefined) | 838
52 | O=C(c1ccc([N+](=O)[O-])o1)N1CC2CC(C1)c1cccc(=O)n1C2 (centres undefined) | 585
53 | CN(CCNC(=O)CCC(=O)N1CCc2c(c(C(=O)N3CCCC3)nn2C)C1)C1CCCCC1 | 590
54 | O=C(CN1CCCC1=O)NCc1ccccc1C(F)(F)F | 680
55 | C=CCSc1nc2ccccc2c2nc(C)nn12 | 982
56 | CCc1cc2c(N3CCCC(C(=O)NCCCN4CCN(C)CC4)C3)ncnc2s1 (centres undefined) | 585
57 | CCOC(=O)c1c(C)c(CCC(=O)N2CCN(c3ncccn3)CC2)n(C)c1C | 765
58 | O=C(NCc1ccccc1)C1CCc2sc(C(=O)N3CCCC3)cc2C1 (centres undefined) | 702
59 | COCCc1noc(CC2CCOC3(CCN(C(=O)NC(C)(C)C)CC3)C2)n1 (centres undefined) | 700
60 | O=C(Nc1cccc(OC(F)(F)F)c1)C1(CCO)CCN(c2ncccn2)C1 (centres undefined) | 661
61 | Cc1nc(N(C)C)cc(N2CCN(C(=O)c3cccc(Br)c3)CC2)n1 | 656
62 | CC(CCNC(=O)C1CCN(c2nc3cccnc3s2)CC1)N1CCCC1 (centres undefined) | 580
63 | Cc1cccc(-n2ncc3c(NCCCN4CCCC4=O)ncnc32)c1 | 682
64 | CC(C)CC(=O)N1CCCC(c2nc(CNC(=O)C(C)C)cs2)C1 (centres undefined) | 705
65 | O=C(NCc1cccc(C(F)(F)F)c1)C1CCN(c2cnc3nccnc3c2)CC1 | 754
66 | CCOC(CCNC(=O)CCC(=O)Nc1ccc2nc(N3CCN(C)CC3)cc(C)c2c1)OCC | 546
67 | CCC(=O)N1CCC(c2noc(CO)n2)C1 (centres undefined) | 545
68 | O=C(Nc1cccc(Cl)c1)c1nnn(-c2ccc(F)cc2)c1-c1cccnc1 | 963

Row | Compound | RP-LC retention time [s]
69 | Cc1ccc(CNc2ccc(-c3nc(-c4ccc(F)cc4)no3)cn2)o1 | 1190
70 | CC(C)c1cc(C(=O)Nc2cccc(Cl)c2)nn1C1CCS(=O)(=O)C1 (centres undefined) | 994
71 | O=C(NC1CCCC1)C1CCN(C(=O)c2ncn3c2COC(c2ccc(Cl)cc2)C3)CC1 (centres undefined) | 780
72 | O=C(N1CC(Oc2ccccc2-c2nc(C3CC3)no2)C1)C1(c2ccccc2)CC1 | 665
73 | Cc1ccc(-c2nc3nc(C)c(CC(=O)N4CCCC4)c(C)n3n2)cc1 | 738
74 | Cc1ccc(NC(=O)C2(Cc3cccnc3)CCCCC(=O)N2)cc1 (centres undefined) | 611
75 | Cc1cc(Cl)ccc1S(=O)(=O)N1C[C@@H](F)C[C@H]1C(=O)N1CCCCC1 | 948
76 | NC(=O)c1cccc(Nc2c(-c3ccc(Cl)cc3)nc3cnccn23)c1 | 685
77 | Cc1n[nH]c(C)c1S(=O)(=O)N1CCC(c2nnc(-c3ccco3)s2)CC1 | 660
78 | O=C1COc2cc(S(=O)(=O)N3CCCC3C(=O)NCc3ccc4c(c3)OCO4)c(Cl)cc2N1 (centres undefined) | 725
79 | Cc1ccc(CCNC(=O)Cn2c(C)nc3onc(C)c3c2=O)cc1 | 787
80 | Cc1ccc2nc(-c3ccc(C)c(NC(=O)C(C)(C)C)c3)[nH]c2c1 | 680
81 | CC(C)[C@H](CO)Nc1nc(Sc2cccc(N)c2)c2ncn(C(C)C)c2n1 | 706
82 | O=C(NCCN1CCCCCC1)C1CCCN(c2ncc(-c3cccc(F)c3)cn2)C1 (centres undefined) | 715
83 | Cn1c(=O)sc2cc(S(=O)(=O)N3CCC(C(=O)NCc4ccco4)CC3)ccc21 | 739
84 | Cc1cc2c(N3CCCC(C(=O)NCc4ccc(N5CCOCC5)cc4)C3)nccc2s1 (centres undefined) | 711
85 | Nc1cc(C2CCN(C(=O)COc3ccc(F)cc3)CC2)no1 | 656
86 | CCCNS(=O)(=O)c1c(C)sc(C)c1-c1cc(C(F)(F)F)on1 | 1130
87 | Cc1ccc(C)c(Cn2nc(-c3nc(C(C)(C)C)no3)ccc2=O)c1 | 1170
88 | CC(C)(C)c1ccc(-c2csc(N)n2)cc1 | 666
89 | O=C(Cn1nc2c(cc1=O)CCCC2)Nc1ccc(N2CCCCS2(=O)=O)cc1 | 720

Source: the METLIN SMRT retention time set (Domingo-Almenara et al. 2019)
